From patent publication US9763911B2, “Prostacyclin compositions for regulation of fracture repair and bone formation” (MAYO FOUNDATION FOR MEDICAL EDUCATION AND RESEARCH, priority 2013, dated 2017)

How the values were obtained:
[1] = test system: 6-keto PGF1α (PGI2 synthesis) in KO OC clone 8 cells; test: 6-keto PGF1α in culture medium of treated Sost KO clonal osteocytes (EIA); format: cell-based, mouse; conditions: 100 nM C59, 48 h, vehicle 274.964±6.006 pg/mL, P=0.012 (FIG. 7B)
Protocol: (§1) FIGS. 7A and 7B show inhibition of Wnt secretion with C-59 reduces intra-cellular activated β-catenin concentrations and 6-keto PGF1α concentrations. […] KO OC clone 8 cells were treated with a Wnt inhibitor, C-59 (2-(4-(2-methylpyridin-4-yl)phenyl)-N-(4(pyridine-3-yl)phenyl)acetamide) to assess the functional importance of β-catenin signaling in sclerostin-mediated increases in PGI2 synthesis.
All prostaglandin metabolite measurements were performed by enzyme immunoassay (EIA) using kits from Cayman Chemical (Ann Arbor, Mich.). 6-Keto prostaglandin Flα (Catalog Number 515211), prostaglandin E2 (Catalog Number 514010), Prostaglandin E Metabolite (Catalog Number 514531), prostaglandin F2α (Catalog Number 516011), prostaglandin D2 (Catalog Number 512031), and thromboxane B2 (Catalog Number 519031) were all performed according to kit instructions. Culture medium was diluted 1:2 in supplied buffer for each metabolite measurement, solubilized bone proteins were diluted 1:100 in supplied buffer for each metabolite measurement, and urine was diluted 1:500 in supplied buffer for each metabolite measurement.
Wells in a 6-well collagen treated plate were seeded with 0.2×10^6 sclerostin knock-out osteocytes (Clone KO8). After 48 hours, normal growth medium was removed, and cells were rinsed with PBS. […]

[2] = test system: β-catenin in KO OC clone 8 cells; test: Activated β-catenin protein in Sost KO clonal osteocytes treated with Wnt inhibitor (immunoblot); format: cell-based, mouse; conditions: KO OC 8 cells, treatment for 48 hours, vs vehicle, P<0.05 (FIG. 7A)
Protocol: as §1
Wells in a 6-well collagen treated plate were seeded with 0.2×10^6 sclerostin knock-out osteocytes (Clone KO8). After 48 hours, normal growth medium was removed, and cells were rinsed with PBS. Serum-free media was then added (α-MEM, 1% P/S) to the osteocytes as was well as either 100 nM of the small molecule Wnt inhibitor, C59 (2-(4-(2-methylpyridin-4-yl)phenyl)-N-(4-(pyridine-3-yl)phenyl) acetamide), or a vehicle control. After a 48 hour incubation, media was harvested from both vehicle and experimental wells and assayed for 6-keto prostaglandin F1α.
Cell lysates from 6- or 12-well plates were prepared by scraping cells in lysis buffer (0.1% SDS, 150 mM NaCl, 2 mM sodium vanadate, 0.5% sodium deoxycholate, 1% NP-40 50 mM Tris pH 8.2, 1 mM EDTA with one mini-complete protease inhibitor cocktail EDTA-free tab (Roche Diagnostics, Indianapolis, Ind.)) per 7 ml lysis solution or by direct addition of 1×SDS sample containing 5 mM EDTA and protease inhibitor as above. […]

SMILES: Cc1cc(-c2ccc(CC(=O)Nc3ccc(-c4cccnc4)cc3)cc2)ccn1 [C59, 2-(4-(2-methylpyridin-4-yl)phenyl)-N-(4(pyridine-3-yl)phenyl)acetamide]
- 6-keto PGF1α in culture medium [1]: 536.409 ± 60.690 pg/mL
- β-catenin protein concentration in cells [2]: statistically significant decrease
